Reference: patent publication US20220395500A1, “SMALL MOLECULE ACTIVATORS OF INTERFERON REGULATORY FACTOR 3 AND METHODS OF USE THEREOF” (Neuralexo, Inc., priority 2020, published 2022)

tested on: plasma cytokines IL-6 and MCP1; test: Plasma cytokine induction in vivo in mice; design: species or system mouse; conditions: WT C57/BL6 mice, 10 mg/kg, i.v.
Protocol: FIG. 27A is a bar graph illustrating the ability of NA-42 to induce plasma cytokine expression in vivo in mice. […] Expression is represented as pg/ml.
FIG. 27B is a bar graph illustrating the ability of ND-13 to induce plasma cytokine expression in vivo in mice. […] Expression is represented as pg/ml.
Plasma cytokine levels were evaluated using a cytokine 20-plex mouse ProcartaPlex kit (Invitrogen) for labeling of multiple cytokines within an individual sample and run on a Luminex 200 instrument.
Select chemical entities corresponding to the NA and ND chemofamilies were examined as to their ability to induce the expression of various cytokines in vivo. […] Shown at FIG. 27A is a representative example showing NA-42 induction of IL-6 (top panel) and MCP1 (bottom panel).

| SMILES | plasma IL-6 and MCP1 expression in vivo |
| --- | --- |
| CCOc1cccc(COc2ccc(C(=O)Nc3ccc(N4CCN(C(=O)c5cccs5)CC4)cc3)cc2)c1 [NA-42, 4-((3-ethoxybenzyl)oxy)-N-(4-(4-(thiophene-2-carbonyl)piperazin-1-yl)phenyl)benzamide] | robust expression |
| COc1ccc(C(=O)Nc2cc(-c3nc4cc(C)c(C)cc4o3)ccc2C)cc1[N+](=O)[O-] [ND-13, N-(5-(5,6-dimethylbenzo[d]oxazol-2-yl)-2-methylphenyl)-4-methoxy-3-nitrobenzamide] | robust |

tested on: J774-Dual cells; test: J774-Dual cytotoxicity; type: cell-based, mouse; conditions: Mouse Reporter Cell Line J774; read-out: J774 cytotox CC50
How it was run: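 CC50 derived from 8-point concentration series in mouse J774-Dual reporter cells, with viability read by CellTiter-Glo in the same plate. Run in parallel with EC50 and ISRE:NFκB ratio determination for cross-species confirmation.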

| SMILES | CC50 [µM] |
| --- | --- |
| COc1ccc(C(=O)Nc2cc(-c3nc4ccccc4s3)ccc2C)cc1[N+](=O)[O-] [ND-38] | > 25 |
| COc1ccc(C(=O)Nc2cc(-c3nc4ccccc4s3)ccc2C)cc1[N+](=O)[O-] [ND52, N-[5-(1,3-benzothiazol-2-yl)-2-methylphenyl]-4-methoxy-3-nitrobenzamide] | 101 |

tested on: IRF-Lucia luciferase reporter (ISRE) in THP1-Dual cells; test: THP1-Dual IRF-Lucia luciferase reporter assay (ISRE activation); type: cell-based, human; conditions: 8-point dose response, human THP1 and mouse J774 macrophage-like cells
How it was run: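 Supernatant luminescence from the ISG54/ISRE-driven Lucia reporter was measured after 24 h exposure to 10 μM compound (LPS 313 ng/mL in control wells).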

| SMILES | IRF3 and NF-κB reporter activity |
| --- | --- |
| CCOc1cccc(COc2ccc(C(=O)Nc3ccc(N4CCN(C(=O)c5cccs5)CC4)cc3)cc2)c1 [NA-42, 4-((3-ethoxybenzyl)oxy)-N-(4-(4-(thiophene-2-carbonyl)piperazin-1-yl)phenyl)benzamide] | high IRF3 activity and low off-target NF-κB activation |
| COc1ccc(C(=O)Nc2cc(-c3nc4cc(C)c(C)cc4o3)ccc2C)cc1[N+](=O)[O-] [ND-13, N-(5-(5,6-dimethylbenzo[d]oxazol-2-yl)-2-methylphenyl)-4-methoxy-3-nitrobenzamide] | high IRF3 activity and low off-target NF-κB activation |

same assay, conditions: Homo sapiens, THP1-Dual, Human Reporter Cell Line THP1; read-out: THP1 IRF EC50

| SMILES | EC50 [µM] |
| --- | --- |
| Cc1ccc(-c2nc3ccccc3s2)cc1NC(=O)c1cccc(Cl)c1 [ND-80] | 6.16 |
| Cc1ccc(NC(=O)c2cc(NC(=O)c3ccccc3)ccc2N2CCOCC2)cc1Cl [NB-1] | 2.53 |
| Cc1ccc(NC(=O)c2cc(NC(=O)c3cccs3)ccc2N2CCOCC2)cc1Cl [NB-8] | 4.7 |
| CC(C)CC(=O)Nc1ccc2oc(-c3cccc(I)c3)nc2c1 [ND-5] | 14.7 |
| COc1ccc(C(=O)Nc2nc(-c3cc4ccccc4oc3=O)cs2)cc1 [ND-1] | ~12.4 |
| Cc1ccc(NC(=O)c2cc(NC(=O)c3cccs3)ccc2N2CCOCC2)cc1 [NB-17] | 6.07 |
| COc1ccc(C(=O)Nc2cc(-c3nc4ccccc4s3)ccc2C)cc1[N+](=O)[O-] [ND52, N-[5-(1,3-benzothiazol-2-yl)-2-methylphenyl]-4-methoxy-3-nitrobenzamide] | 3.89 |
| COc1ccc(C(=O)Nc2cc(-c3nc4cc(C(C)C)ccc4o3)ccc2C)cc1[N+](=O)[O-] [ND-2] | 1.12 |
| ClCCCOc1ccc(-c2nc3cc(OCCCN4CCCC4)ccc3o2)cc1 [ND-94] | 32.1 |
| COCOc1ccc2oc(-c3ccc(C)c([N+](=O)[O-])c3)nc2c1 [ND-96] | ~4.1 |
| COCOc1ccc2oc(-c3ccc(C)c(NC(=O)c4ccc(OC)c([N+](=O)[O-])c4)c3)nc2c1 [ND-95, 4-methoxy-N-(5-(5-(methoxymethoxy)benzo[d]oxazol-2-yl)-2-methylphenyl)-3-nitrobenzamide] | 0.59 |
| COc1ccc(C(=O)Nc2cc(-c3nc4cc(C)c(C)cc4o3)ccc2C)cc1[N+](=O)[O-] [ND13, N-(5-(5,6-dimethylbenzo[d]oxazol-2-yl)-2-methylphenyl)-4-methoxy-3-nitrobenzamide] | 0.975 |
| O=C(Cc1ccc(Cl)cc1)Nc1cccc(-c2nnc(-c3ccco3)o2)c1 [ND-7] | 8.42 |
| COc1ccc(C(=O)Nc2cccc(-c3nc4ncccc4o3)c2)cc1Br [ND-47] | 10.6 |
| Cc1ccc(NC(=O)c2cc(NC(=O)Cc3ccccc3)ccc2N2CCOCC2)cc1Cl [NB-3] | ~1.57 |
| Cc1ccc(NC(=O)c2cc(NC(=O)c3cccs3)ccc2N2CCOCC2)cc1Br [NB-23] | 3.27 |
| COc1ccc(-c2nc3cc(C(C)C)ccc3o2)cc1NC(=O)c1ccc(C)c([N+](=O)[O-])c1 [ND-16] | 3.12 |
| O=C(Nc1ccc(N2CCOCC2)c(C(=O)Nc2ccc(OCc3ccccc3)cc2)c1)c1cccs1 [NB-18] | 2.23 |

same assay, conditions: Homo sapiens, THP1-Dual, Human Reporter Cell Line, 8-point dose response; read-out: THP1 IRF EC50

| SMILES | EC50 [µM] |
| --- | --- |
| O=C(Nc1ccc(N2CCN(C(=O)c3ccsc3)CC2)cc1)c1ccc(OCc2ccccc2)nc1 [NA-1] | 1.94 |
| O=C(Nc1ccc(N2CCN(C(=O)c3cccs3)CC2)cc1)c1ccc(Cl)c2ccccc12 [NA13] | ~1.55 |
| O=C(Nc1ccc(N2CCN(C(=O)c3cccs3)CC2)cc1)c1ccc(OCc2cccc(Cl)c2)cc1 [NA-33] | 1.84 |
| O=C(Nc1ccc(N2CCN(C(=O)c3cccs3)CC2)cc1)c1ccc(OCc2ccccc2)nc1 [NA-59] | ~2.53 |
| O=C(Nc1ccc(N2CCN(C(=O)c3cccs3)CC2)cc1)c1sc2cc(Cl)ccc2c1Cl [NA-20] | 1.94 |
| O=C(Nc1ccc(N2CCN(C(=O)c3cccs3)CC2)cc1)c1ccc(OCc2ccc(F)c(F)c2F)cc1 [NA-23] | 1.71 |
| CCOc1cccc(COc2ccc(C(=O)Nc3ccc(N4CCN(C(=O)c5cccs5)CC4)cc3)cc2)c1 [NA42, 4-((3-ethoxybenzyl)oxy)-N-(4-(4-(thiophene-2-carbonyl)piperazin-1-yl)phenyl)benzamide] | 3.6 |
| Cc1cc(NC(=O)c2sc3cc(Cl)ccc3c2Cl)ccc1NC(=O)c1ccco1 [NC-2] | 7.98 |
| O=C(Nc1ccc(N2CCN(C(=O)c3cccs3)CC2)cc1)c1ccc(-c2ccncc2)cc1 [NA-38] | ~11.2 |
| O=C(Nc1ccc(N2CCN(C(=O)c3cccs3)CC2)cc1)c1ccc(-c2ccccc2)cn1 [NA-39] | 7.02 |
| CCOc1ccc(C(=O)Nc2ccc(N3CCN(C(=O)c4cccs4)CC3)cc2)cc1Br [NA-30] | 2.68 |
| COc1cccc(COc2ccc(C(=O)Nc3ccc(N4CCN(C(=O)c5cccs5)CC4)cc3)cc2)c1 [NA-24, 4-((3-methoxybenzyl)oxy)-N-(4-(4-(thiophene-2-carbonyl)piperazin-1-yl)phenyl)benzamide] | 3.14 |
| O=C(Nc1ccc(N2CCN(C(=O)c3cccs3)CC2)cc1)c1ccc(-c2ccccc2)nc1 [NA-41] | 10.7 |
| O=C(Nc1ccc(N2CCN(C(=O)c3cccs3)CC2)cc1)c1cccc2c(Br)cccc12 [NA-21, 5-bromo-N-{4-[4-(2-thienylcarbonyl)-1-piperazinyl]phenyl}-1-naphthamide] | 0.73 |
| COc1ccc(C(=O)Nc2ccc(OCc3ccccc3)cc2)cc1[N+](=O)[O-] [NA-44] | 4.45 |
| Cc1ccc(COc2ccc(C(=O)Nc3ccc(N4CCN(C(=O)c5cccs5)CC4)cc3)cc2)cc1 [NA-25] | 3.29 |
| O=C(Nc1ccc(N2CCN(C(=O)c3cccs3)CC2)cc1)c1ccc(Br)cc1 [NA-14] | ~2.62 |
| Cc1c(Br)ccc(C(=O)Nc2ccc(N3CCN(C(=O)c4cccs4)CC3)cc2)c1C [NA-16] | 6.46 |
| O=C(Nc1ccc(N2CCN(C(=O)c3cccs3)CC2)cc1)c1ccc(-c2cc3ccccc3oc2=O)cc1 [NA-32] | 1.43 |

same assay, conditions: Human Reporter Cell Line THP1; read-out: THP1 IRF EC50

| SMILES | EC50 [µM] |
| --- | --- |
| COc1ccc(C(=O)Nc2cc(-c3nc4ccccc4s3)ccc2C)cc1[N+](=O)[O-] [ND-38] | 4.29 |

same assay, conditions: THP1-Dual

| SMILES | ISRE activation in THP1-Dual cell line |
| --- | --- |
| Cc1ccc2c(=O)c3cccc(CC(=O)O)c3oc2c1C [DMXAA, 5,6-dimethylxanthenone-4-acetic acid] | not effective |

tested on: IP-10 in mBMDMs (wild-type and IRF3 KO); test: IP-10 induction in mouse bone marrow derived macrophages (ELISA); type: cell-based; conditions: increasing concentrations, wild-type vs IRF3 knock-out cells
Protocol: IP-10 levels were determined by mouse CXCL10/IP10 ELISA (Invitrogen, Carlsbad, Calif.) and are expressed as pg/ml. Data represents group mean+/−standard deviation.
IP-10 expression was determined by mouse CXCL10/IP10 ELISA (Invitrogen, Carlsbad, Calif.), and is expressed as pg/ml. Data represents group mean+/−standard deviation.
Target specificity of chemical entities corresponding to the ND and NA chemofamiles was examined by determining dose-dependent expression of IP10, a highly inducible, primary response gene that belongs to the C-X-C chemokine superfamily. […] IP-10 expression was monitored by a mouse CXCL10/IP10 ELISA (Invitrogen, Carlsbad, Calif.), and is expressed at FIG. 20 and FIG. 21 as pg/ml.

| SMILES | induction of IP-10 in mBMDMs |
| --- | --- |
| CCOc1cccc(COc2ccc(C(=O)Nc3ccc(N4CCN(C(=O)c5cccs5)CC4)cc3)cc2)c1 [NA-42, 4-((3-ethoxybenzyl)oxy)-N-(4-(4-(thiophene-2-carbonyl)piperazin-1-yl)phenyl)benzamide] | IRF3 dependent induction |
| COc1ccc(C(=O)Nc2cc(-c3nc4cc(C)c(C)cc4o3)ccc2C)cc1[N+](=O)[O-] [ND-13, N-(5-(5,6-dimethylbenzo[d]oxazol-2-yl)-2-methylphenyl)-4-methoxy-3-nitrobenzamide] | IRF3 dependent induction |
